Measured values as given in patent US8389533B2, “Gem-disubstituted and spirocyclic amino pyridines/pyrimidines as cell cycle inhibitors” (Amgen Inc., priority 2008, dated 2013).

Tests used:
Cdk6/CyclinD3 = Cdk6/CyclinD3 (Homo sapiens, UniProt Q00534); experiment: Cdk6 kinase inhibition assay (33P-ATP filter plate, Rb substrate); assay type: biochemical; conditions: recombinant Cdk6/CyclinD3, Rb substrate, 25 μM ATP, 1 hour room temperature; read-out: Cdk 6 IC50
Method: (§1) The Cdk4 and Cdk6 inhibitory activity of the compounds is measured with a kinase inhibition assay using recombinant Cdk4/CyclinD1 or Cdk6/CyclinD3 protein complexes. The protein substrate used in the assay is the retinoblastoma protein (Rb). The kinase reactions are carried out in a 96-well filter plate (MSDV N6B50, Millipore). Compounds are serially diluted in kinase buffer (20 mM Tris-HCl, pH 7.4, 50 mM NaCl, 1 mM DTT, 1 mg/ml BSA) and added to the reaction mixture containing 2.5 ng/ml Cdk4/CyclinD1 or Cdk6/CyclinD3, 25 μM ATP, 10 μCi/ml [^33P]-ATP, 0.1 μg/ml Rb in the kinase buffer. The mixture is incubated at room temperature for 1 hour and the proteins precipitated with an equal volume of 20% TCA. The plates are washed with 10% TCA according to the manufacturer's instruction and dried at room temperature. The amount of the phosphorylated Rb is determined with a TopCount (PerkinElmer). The IC50 of a compound is determined by nonlinear regression curve fitting using software program Prism 5 (GraphPad Software).

Cdk4/CyclinD1 = Cdk4/CyclinD1 (Homo sapiens, UniProt P11802); experiment: Cdk4 kinase inhibition assay (33P-ATP filter plate, Rb substrate); assay type: biochemical; conditions: recombinant Cdk4/CyclinD1, Rb substrate, 25 μM ATP, 1 hour room temperature; read-out: Cdk 4 IC50
Cdk4/CyclinD1, sequence (P11802 whole entry): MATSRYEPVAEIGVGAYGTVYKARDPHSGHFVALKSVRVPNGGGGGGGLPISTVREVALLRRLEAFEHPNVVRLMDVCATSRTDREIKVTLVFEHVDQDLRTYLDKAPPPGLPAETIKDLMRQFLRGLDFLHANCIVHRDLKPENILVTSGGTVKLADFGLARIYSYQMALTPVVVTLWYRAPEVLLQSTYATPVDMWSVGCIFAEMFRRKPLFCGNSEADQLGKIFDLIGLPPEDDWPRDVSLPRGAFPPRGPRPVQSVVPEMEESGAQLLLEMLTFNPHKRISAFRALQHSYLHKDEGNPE
Cdk4/CyclinD1, sequence (P24385 whole entry partner): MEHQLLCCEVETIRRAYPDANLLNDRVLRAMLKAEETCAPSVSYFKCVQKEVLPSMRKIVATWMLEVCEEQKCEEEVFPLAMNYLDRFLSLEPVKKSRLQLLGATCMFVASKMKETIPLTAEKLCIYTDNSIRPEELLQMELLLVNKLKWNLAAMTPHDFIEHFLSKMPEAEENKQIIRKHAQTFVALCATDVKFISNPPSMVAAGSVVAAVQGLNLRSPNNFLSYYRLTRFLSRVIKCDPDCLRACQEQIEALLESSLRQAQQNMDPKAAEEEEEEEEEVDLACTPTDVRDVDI
Method: as §1

Cdk6/CyclinD3, sequence (Q00534 whole entry): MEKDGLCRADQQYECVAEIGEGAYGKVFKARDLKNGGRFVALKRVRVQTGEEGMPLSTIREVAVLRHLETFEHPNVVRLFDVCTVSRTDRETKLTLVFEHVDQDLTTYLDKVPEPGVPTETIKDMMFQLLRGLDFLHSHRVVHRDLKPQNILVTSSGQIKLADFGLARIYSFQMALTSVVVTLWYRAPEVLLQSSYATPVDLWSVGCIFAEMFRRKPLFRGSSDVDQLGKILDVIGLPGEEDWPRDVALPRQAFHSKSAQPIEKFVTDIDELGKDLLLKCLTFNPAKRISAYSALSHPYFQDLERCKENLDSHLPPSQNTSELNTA
Cdk6/CyclinD3, sequence (P30281 whole entry partner): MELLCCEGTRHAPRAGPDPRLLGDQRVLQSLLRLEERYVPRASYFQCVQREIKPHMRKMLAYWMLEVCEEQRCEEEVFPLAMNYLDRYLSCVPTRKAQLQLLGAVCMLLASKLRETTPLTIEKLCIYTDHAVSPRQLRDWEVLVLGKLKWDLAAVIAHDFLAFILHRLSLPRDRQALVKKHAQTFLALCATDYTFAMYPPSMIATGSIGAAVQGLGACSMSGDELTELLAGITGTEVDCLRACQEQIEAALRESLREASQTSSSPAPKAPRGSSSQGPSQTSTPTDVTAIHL

| Compound | IC50 (Cdk6/CyclinD3) [nM] | IC50 (Cdk4/CyclinD1) [nM] |
| --- | --- | --- |
| OC1CCC2(CC1)Oc1ncccc1-c1cnc(Nc3ccc(N4CCNCC4)cn3)nc12 (mixture of isomers) [Example 40] | 33 | 84 |
| c1ccc2c(c1)OC1(CCCC1)c1nc(Nc3ccc(N4CCNCC4)cn3)ncc1-2 [Example 15, N-(5-(1-piperazinyl)-2-pyridinyl)spiro[chromeno[3,4-d]pyrimidine-5,1′-cyclopentan]-3-amine] | 13.5 | 84 |
| CS(=O)(=O)c1cccc2c1OC1(CCCCC1)c1nc(Nc3ccc(N4CCNCC4)cn3)ncc1-2 [Example 23, 7-(methylsulfonyl)-N-(5-(1-piperazinyl)-2-pyridinyl)spiro[chromeno[3,4-d]pyrimidine-5,1′-cyclohexan]-3-amine] | 2620 | 2850 |
| c1cnc2c(c1)OC1(CCOCC1)c1nc(Nc3ccc(N4CCNCC4)cc3)ncc1-2 [Example 25, N-(4-(1-piperazinyl)phenyl)-2,3,5,6-tetrahydrospiro[pyran-4,6′-pyrido[2′,3′:5,6]pyrano[3,4-d]pyrimidin]-8′-amine] | 540 | 330 |
| CC1(C)CCc2cnc(Nc3ccc(N4CCNCC4)cc3)nc21 [Example 49, 7,7-dimethyl-N-(4-(1-piperazinyl)phenyl)-6,7-dihydro-5H-cyclopenta[d]pyrimidin-2-amine] |  | 668 |
| c1cc2c(cn1)C1(CCOCC1)c1nc(Nc3ccc(N4CCNCC4)cn3)ncc1-2 [Example 63, N-(5-(1-piperazinyl)-2-pyridinyl)-2,3,5,6-tetrahydrospiro[pyran-4,9′-pyrido[4′,3′:3,4]cyclopenta[1,2-d]pyrimidin]-2′-amine] |  | 410 |
| O=C1NC2(CCCCC2)c2nc(Nc3ccc(N4CCNCC4)cc3)ncc21 [Example 68, 2′-((4-(1-piperazinyl)phenyl)amino)spiro[cyclohexane-1,7′-pyrrolo[3,4-d]pyrimidin]-5′(6′H)-one] |  | 1140 |
| CC1CC(O)C2(CC=CC2)c2nc(Nc3ccc(N4CCNCC4)cn3)ncc21 [Example 71, (7S)-5′-methyl-2′-((5-(1-piperazinyl)-2-pyridinyl)amino)-6′,7′-dihydro-5′H-spiro[cyclopent-3-ene-1,8′-quinazolin]-7′-ol] | 510 | 710 |
| CC1=CC(=O)C2(CCCC2)c2nc(Nc3ccc(N4CCNCC4)cn3)ncc21 [Example 73, 5′-methyl-2′-((5-(1-piperazinyl)-2-pyridinyl)amino)-7′H-spiro[cyclopentane-1,8′-quinazolin]-7′-one] |  | 2500 |
| C[C@@H]1CC(=O)C2(CC=CC2)c2nc(Nc3ccc(N4CCNCC4)cn3)ncc21 [Example 74, (5′R)-5′-methyl-2′-((5-(1-piperazinyl)-2-pyridinyl)amino)-5′,6′-dihydro-7′H-spiro[cyclopent-3-ene-1,8′-quinazolin]-7′-one] | 1800 | 3500 |

The next molecules have a lower IC50 (Cdk4/CyclinD1) than those just listed; values first:

| IC50 (Cdk6/CyclinD3) [nM] | IC50 (Cdk4/CyclinD1) [nM] | Compound |
| --- | --- | --- |
| 60 | 77 | CC1(C)CC2(CCO1)Oc1ncccc1-c1cnc(Nc3ccc(N4CCNCC4)cc3)nc12 (racemic) [Example 35, (racemic)-2,2-dimethyl-N-(4-(1-piperazinyl)phenyl)-2,3,5,6-tetrahydrospiro[pyran-4,5′-pyrido[3′,2′:5,6]pyrano[3,4-d]pyrimidin]-3′-amine] |
| 27 | 0.8 | CC1(C)C=CC2(CC1)c1cnccc1-c1cnc(Nc3ccc(N4CCNCC4)cc3)nc12 (racemic) [Example 44, (racemic)-4,4-dimethyl-N-(4-(1-piperazinyl)phenyl)spiro[cyclohex-2-ene-1,9′-pyrido[4′,3′:3,4]cyclopenta[1,2-d]pyrimidin]-2′-amine] |
| 205 | 14.6 | CN(C)C1CCN(c2ccc(Nc3ncc4c(n3)C3(C=CC(C)(C)CC3)c3cnccc3-4)nn2)CC1 (racemic) [Example 76, (racemic)-4,4-dimethyl-N-(6-(4-(dimethylamino)piperidin-1-yl)-pyridazin-3-yl)spiro[cyclohex-2-ene-1,9′-pyrido[4′,3′:3,4]cyclopenta[1,2-d]pyrimidin]-2′-amine] |
| 14.2 | 14.2 | CN1CCN(c2ccc(Nc3ncc4c(n3)C3(CCCCC3)Oc3ccccc3-4)cc2)CC1 [Example 3, N-(4-(4-methyl-1-piperazinyl)phenyl)spiro[chromeno[3,4-d]pyrimidine-5,1′-cyclohexan]-3-amine] |
| 68 | 74 | CC1(C)CCC2(CC1)Oc1ncccc1-c1cnc(Nc3ccc(N4CCNCC4)cn3)nc12 [Example 27, 4,4-dimethyl-N-(5-(1-piperazinyl)-2-pyridinyl)spiro[cyclohexane-1,5′-pyrido[3′,3′:5,6]pyrano[3,4-d]pyrimidin]-3′-amine] |
| 1.1 | 5.9 | c1cnc2c(c1)-c1cnc(Nc3ccc(N4CCNCC4)cc3)nc1C1(CCCCC1)O2 [Example 29, N-(4-(1-piperazinyl)phenyl)spiro[cyclohexane-1,5′-pyrido[3′,2′:5,6]pyrano[3,4-d]pyrimidin]-3′-amine] |
| 266 | 44 | O=C(c1csc(Nc2ncc3c(n2)C2(CCCCC2)c2cnccc2-3)n1)N1CCNCC1 [Example 48, N-(4-(1-piperazinylcarbonyl)-1,3-thiazol-2-yl)spiro[cyclohexane-1,9′-pyrido[4′,3′:3,4]cyclopenta[1,2-d]pyrimidin]-2′-amine] |
| 81 | 56.2 | c1ccc2c(c1)-c1cnc(Nc3ccc(N4CCNCC4)cc3)nc1C21CCNCC1 [Example 50, N-(4-(1-piperazinyl)phenyl)spiro[indeno[2,1-d]pyrimidine-9,4′-piperidin]-2-amine] |
